Laboratory results as given in paper PMC4076210, “Discovery of Novel AKT Inhibitors with Enhanced Anti-Tumor Effects in Combination with the MEK Inhibitor” (PLoS ONE, 2014).
pIC50: −log10 of the molar value.

Tested on: solid tumor cell lines
Experiment: 3-day proliferation assay (CellTiter-Glo)
Format: cell-based, human
Conditions: for pIC50: Homo sapiens
Description: Various tumor cell lines were obtained from different sources including; the American Type Cell Culture Collection, the Developmental Therapeutics Program, the National Cancer Institute, the German Resource Center for Biological Material and the European Collection of Animal Cell Cultures. Cell lines were typically grown in […] containing 10% FBS. Some cell lines were grown in media specified by the vendor. A 3-day proliferation assay using CellTiter-Glo (CTG, Promega) was performed to measure the growth inhibition by the compounds at 0–30 µM. Cell growth was determined relative to untreated (DMSO) controls. EC50's were calculated from inhibition curves using a 4- or 6-parameter fitting algorithm in the Assay Client application.

Cn1ncc(Cl)c1-c1cc(C(=O)N[C@H](CN)Cc2cccc(F)c2)sc1Cl [GSK2110183]
solid tumor cell lines with EC50<1 µM (178 cell lines, 3 days, CTG): 21% | pIC50 (22Rv1, 22Rv1, Prostate): 6.15 | pIC50 (647-V, 647V, Bladder): 4.94 | pIC50 (786-0, 786-O, Kidney): 5.78 | pIC50 (A204, A204, Sarcoma): 5.67 | pIC50 (A549, A549, Lung): 5.48 | pIC50 (A673, A673, Sarcoma): 4.70 | pIC50 (A2780, A2780, Ovary): 5.40 | pIC50 (A-375, A375, Skin): 5.06 | pIC50 (A-427, A427, Lung): 4.72 | pIC50 (ACHN, Kidney): 5.43 | pIC50 (AGS, Stomach): 6.02 | pIC50 (BE(2)-C, BE2C, Neuroblastoma): 5.83 | pIC50 (BFTC-905, BFTC905, Bladder): 5.58 | pIC50 (BT-20, BT20, Breast): 6.51 | pIC50 (BXPC-3, BXPC3, Pancreas): < 4.52 | pIC50 (C3A, Liver): 5.76 | pIC50 (C32TG, Skin): 6.01 | pIC50 (C-33-A, C-33A, Cervix): 6.27 | pIC50 (C-41, Cervix): 4.82 | pIC50 (CAL-27, CAL27, Head & Neck): 5.10 | pIC50 (CAL-62, CAL62, Thyroid): 4.98 | pIC50 (CCF-STTG1, CCFSTTG1, Brain): 6.17 | pIC50 (CGTH-W-1, CGTHW1, Thyroid): 5.51 | pIC50 (CHL-1, CHL1, Skin): 5.42 | pIC50 (CHP-212, CHP212, Neuroblastoma): 5.63 | pIC50 (COLO 205, COLO205, Colon): 5.12 | pIC50 (COLO 320DM, COLO320DM, Colon): 5.87 | pIC50 (COLO 704, COLO704, Ovary): 6.47 | pIC50 (COR-L23, CORL23, Lung): 5.41 | pIC50 (Calu-3, CALU3, Lung): 5.48 | pIC50 (Calu-6, CALU6, Lung): 5.26 | pIC50 (Caov-3, CAOV3, Ovary): 5.21 | pIC50 (Capan-2, Capan2, Pancreas): 5.03 | pIC50 (DBTRG-05MG, DBTRG05MG, Brain): 5.35 | pIC50 (DKMG, Brain): 5.43 | pIC50 (DLD-1, DLD1, Colon): 5.07 | pIC50 (DU-145, DU145, Prostate): 5.18 | pIC50 (DU-4475, DU4475, Breast): 5.64 | pIC50 (DoTc2-4510, DoTc24510, Cervix): 5.65 | pIC50 (EFM-19, EFM19, Breast): 6.93 | pIC50 (EKVX, Lung): 5.26 | pIC50 (ES2, Ovary): 5.34 | pIC50 (FaDu, Head & Neck): 4.98 | pIC50 (G-401, G401, Head & Neck): 5.95 | pIC50 (GCT, Sarcoma): 5.23 | pIC50 (H4, Brain): 5.52 | pIC50 (HCC70, HCC70, Breast): 7.09 | pIC50 (HCC1954, HCC1954, Breast): 6.49 | pIC50 (HCC 2998, HCC2998, Colon): 5.66 | pIC50 (HCT-116, HCT116, Colon): 5.25 | pIC50 (HMCB, Skin): 5.35 | pIC50 (HN5, Head & Neck): 5.53 | pIC50 (HOS, Sarcoma): 5.61 | pIC50 (HPAF-II, HPAFII, Pancreas): 5.13 | pIC50 (HT3, Cervix): 5.57 | pIC50 (HT-29, HT29, Colon): 5.70 | pIC50 (HT-1080, HT1080, Sarcoma): 5.10 | pIC50 (HUVEC, Normal Endothelial): 5.52 | pIC50 (HeLa, Cervix): 5.20 | pIC50 (Hep3B, Liver): 6.40 | pIC50 (Hs746T, Stomach): 5.68 | pIC50 (IGROV-1, IGROV1, Ovary): 7.27 | pIC50 (J82, Bladder): 5.68 | pIC50 (KATO III, KATOIII, Stomach): 6.24 | pIC50 (KHOS-240S, KHOS240S, Sarcoma): 5.09 | pIC50 (KM12, KM12, Colon): 5.19 | pIC50 (KPL-1, KPL1, Breast): 5.42 | pIC50 (KYSE-30, KYSE30, Oesophagus): 5.46 | pIC50 (LNCaP, Prostate): 7.12 | pIC50 (LS174T, Colon): 5.46 | pIC50 (LS-1034, LS1034, Colon): 5.50 | pIC50 (M14, Skin): 5.31 | pIC50 (MC-IXC, MCIXC, Neuroblastoma): 5.98 | pIC50 (MCF7, MCF7, Breast): 6.33 | pIC50 (MCF-10A, MCF10A, Normal Breast): 6.19 | pIC50 (MDA-MB-175-VII, MDAMB175-VII, Breast): 6.72 | pIC50 (MDA-MB-231, MDAMB231, Breast): 4.88 | pIC50 (MDA-MB-453, MDAMB453, Breast): 5.93 | pIC50 (MDA-MB-468, MDAMB468, Breast): 6.00 | pIC50 (MES-SA, MESSA, Sarcoma): 6.18 | pIC50 (MIA PaCa-2, MiaPaCa, Pancreas): 5.77 | pIC50 (NCI-H69, NCIH69, Lung): 5.86 | pIC50 (NCI-H82, NCIH82, Lung): 4.53 | pIC50 (NCI-H146, NCIH146, Lung): 4.95 | pIC50 (NCI-H157, NCIH157, Lung): 5.69 | pIC50 (NCI-H187, NCIH187, Lung): 6.58 | pIC50 (NCI-H209, NCI-H209, Lung): 5.35 | pIC50 (NCI-H226, NCIH226, Lung): 5.21 | pIC50 (NCI-H292, NCIH292, Lung): 5.32 | pIC50 (NCI-H322, NCIH322, Lung): 5.03 | pIC50 (NCI-H358, NCI-H358, Lung): 5.72 | pIC50 (NCI-H446, NCIH446, Lung): 5.94 | pIC50 (NCI-H460, NCIH460, Lung): 5.43 | pIC50 (NCI-H508, NCIH508, Lung): 6.51 | pIC50 (NCI-H520, NCIH520, Lung): 6.03 | pIC50 (NCI-H630, NCIH630, Lung): 5.23 | pIC50 (NCI-H661, NCIH661, Lung): 5.26 | pIC50 (NCI-H716, NCIH716, Colon): 5.41 | pIC50 (NCI-H747, NCIH747, Lung): 5.69 | pIC50 (NCI-H1563, NCIH1563, Lung): 6.24 | pIC50 (NCI-H1792, NCIH1792, Lung): 5.33 | pIC50 (NCI-H2030, NCIH2030, Lung): 5.25 | pIC50 (NCI-H2052, NCIH2052, Lung): 5.32 | pIC50 (NCI-H2081, NCIH2081, Lung): 6.14 | pIC50 (NCI-H2122, NCIH2122, Lung): 5.53 | pIC50 (NCI-H2170, NCI-H2170, Lung): 5.81 | pIC50 (NCI-H2228, NCIH2228, Lung): 6.03 | pIC50 (NCI-N87, NCIN87, Stomach): 5.89 | pIC50 (NCI/ADR-RES, NCIADRRES, Breast): 4.91 | pIC50 (OE19, OE19, Oesophagus): 5.26 | pIC50 (OE21, OE21, Oesophagus): 6.59 | pIC50 (OE33, OE33, Oesophagus): 5.09 | pIC50 (OV-90, OV90, Ovary): 5.33 | pIC50 (OVCAR-3, OVCAR3, Ovary): 5.23 | pIC50 (OVCAR-4, OVCAR4, Ovary): 4.70 | pIC50 (OVCAR-5, OVCAR5, Ovary): 5.11 | pIC50 (PANC-1, Panc1, Pancreas): 5.35 | pIC50 (PC3, Prostate): 5.52 | pIC50 (PL45, PL45, Pancreas): 5.16 | pIC50 (Panc 02.03, Panc02.03, Pancreas): 4.84 | pIC50 (RD, Sarcoma): 4.95 | pIC50 (RD-ES, RDES, Sarcoma): 5.62 | pIC50 (RKO, Colon): 5.84 | pIC50 (SAOS-2, SAOS2, Sarcoma): 5.27 | pIC50 (SCC12, SCC12, Head & Neck): 5.41 | pIC50 (SCC-9, SCC9, Head & Neck): 5.18 | pIC50 (SCC-13, SCC-13, Head & Neck): 4.73 | pIC50 (SCC-15, SCC15, Head & Neck): 5.38 | pIC50 (SCC-25, SCC-25, Head & Neck): 5.33 | pIC50 (SCLC3, Lung): 6.66 | pIC50 (SF-295, SF295, Brain): 6.08 | pIC50 (SF-539, SF539, Brain): 6.05 | pIC50 (SH4, Skin): < 4.52 | pIC50 (SHP77, SHP77, Lung): 5.28 | pIC50 (SJRH30, SJRH30, Sarcoma): 6.04 | pIC50 (SK-BR-3, SKBR3, Breast): 6.43 | pIC50 (SK-LMS-1, SKLMS1, Sarcoma): 5.10 | pIC50 (SK-MEL-1, SKMEL1, Skin): 5.67 | pIC50 (SK-MEL-28, SKMEL28, Skin): 5.49 | pIC50 (SK-MES-1, SKMES-1, Lung): 5.34 | pIC50 (SK-N-AS, SKNAS, Neuroblastoma): 5.15 | pIC50 (SK-OV-3, SKOV3, Ovary): 5.96 | pIC50 (SK-UT-1, SKUT1, Sarcoma): 6.30 | pIC50 (SKNF1, Neuroblastoma): 6.05 | pIC50 (SN12C, Kidney): < 4.52 | pIC50 (SNB-75, SNB75, Brain): 5.83 | pIC50 (SNU1, SNU1, Stomach): 5.67 | pIC50 (SNU-5, SNU5, Stomach): 4.93 | pIC50 (SNU-16, SNU16, Stomach): 5.18 | pIC50 (SNU-398, SNU398, Liver): 4.56 | pIC50 (SNU-449, SNU449, Liver): 5.18 | pIC50 (SW48, SW48, Colon): 6.09 | pIC50 (SW480, SW480, Colon): < 4.52 | pIC50 (SW579, SW579, Thyroid): 5.74 | pIC50 (SW684, SW684, Sarcoma): 5.98 | pIC50 (SW756, SW756, Cervix): 4.98 | pIC50 (SW780, SW780, Bladder): 5.07 | pIC50 (SW872, SW872, Sarcoma): 6.04 | pIC50 (SW900, SW900, Lung): 4.81 | pIC50 (SW1088, SW1088, Brain): 6.02 | pIC50 (SW1417, SW1417, Colon): 5.40 | pIC50 (SW1783, SW1783, Brain): 6.23 | pIC50 (SW1990, SW1990, Pancreas): 4.88 | pIC50 (Skut1B, Sarcoma): 7.68 | pIC50 (T47D, T-47D, Breast): 6.48 | pIC50 (T84, Colon): 5.07 | pIC50 (TE 381.T, TE381T, Sarcoma): 5.79 | pIC50 (TK-10, TK10, Kidney): 5.32 | pIC50 (U20S, Sarcoma): < 4.52 | pIC50 (U138-MG, U138MG, Brain): 5.55 | pIC50 (U-87 MG, U87MG, Brain): 5.30 | pIC50 (U-251, U251, Brain): 5.61 | pIC50 (UACC-62, UACC62, Skin): 5.68 | pIC50 (UACC-257, UACC257, Skin): 5.28 | pIC50 (UMUC3, UMUC3, Bladder): 5.00 | pIC50 (YAPC, Pancreas): 5.08 | pIC50 (ZR-75-1, ZR75-1, Breast): 7.06
